Source: patent US8435976B2, “4-substituted pyridin-3-yl-carboxamide compounds and methods of use” (F. Hoffmann-La Roche, priority 2009, dated 2013)
pEC50, pKi: −log10 of the molar value.

Tests used:
PIM1 = target: T1, PIM1 (Homo sapiens, UniProt P11309); experiment: Pim-1 kinase enzymatic assay (Caliper LC3000, FAM-Pimtide substrate); format: biochemical; conditions: 20 pM PIM1, 10 μM ATP, 90 minutes; read-out: PIM1 LC3K (Ki)
T1 construct: made in house
Procedure: (§1) Reaction Buffer contained 10 mM HEPES, pH 7.2, 10 mM MgCl2, 0.01% Tween 20, 2 mM DTT.
(§2) PIM reactions were carried out in a final volume of 10 μL per well in a 384-well plate. […] The separation of product and substrate was optimized by choosing voltages and pressure using Caliper's Optimizer software (Hopkinton, Mass.). The separation conditions used a downstream voltage of −500V, an upstream voltage of −2150V, and a screening pressure of −1.2 psi. […] Substrate conversion was calculated from the electrophoregram using HTS Well Analyzer software (Caliper Life Sciences, Hopkinton, Mass.). Ki values for the test compound were calculated.

PIM2 = target: T2, PIM2 (Homo sapiens, UniProt Q9P1W9); experiment: Pim-2 kinase enzymatic assay (Caliper LC3000, FAM-Pimtide substrate); format: biochemical; conditions: 50 pM PIM2, 10 μM ATP, 90 minutes; read-out: PIM2 LC3K (Ki)
T2 construct: made in house
T2 sequence (Q9P1W9 whole entry): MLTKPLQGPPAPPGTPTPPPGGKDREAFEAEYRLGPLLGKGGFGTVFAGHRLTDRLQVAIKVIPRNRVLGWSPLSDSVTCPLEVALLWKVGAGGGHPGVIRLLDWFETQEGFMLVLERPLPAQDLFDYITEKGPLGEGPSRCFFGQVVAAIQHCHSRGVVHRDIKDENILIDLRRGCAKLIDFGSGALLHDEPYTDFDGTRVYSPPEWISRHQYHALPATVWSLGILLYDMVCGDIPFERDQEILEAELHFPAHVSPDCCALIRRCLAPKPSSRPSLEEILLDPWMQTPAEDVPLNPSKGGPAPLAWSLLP
Procedure: as §1, §2

PIM3 = target: T3, PIM3 (Homo sapiens, UniProt Q86V86); experiment: Pim-3 kinase enzymatic assay (Caliper LC3000, FAM-Pimtide substrate); format: biochemical; conditions: 55 pM PIM3, 10 μM ATP, 90 minutes; read-out: PIM3 LC3K (Ki)
T3 construct: made in house
Procedure: as §1, §2

BaF3 PIM1 cells = BaF3 PIM1 cells (Homo sapiens, UniProt P11309); experiment: BaF3 PIM1 cell proliferation (Cell Titer Glo); format: cell-based; conditions: incubated overnight; read-out: Prolif BaF3_PIM1 (IC50)
BaF3 PIM1 cells, sequence (P11309 whole entry, change not shown): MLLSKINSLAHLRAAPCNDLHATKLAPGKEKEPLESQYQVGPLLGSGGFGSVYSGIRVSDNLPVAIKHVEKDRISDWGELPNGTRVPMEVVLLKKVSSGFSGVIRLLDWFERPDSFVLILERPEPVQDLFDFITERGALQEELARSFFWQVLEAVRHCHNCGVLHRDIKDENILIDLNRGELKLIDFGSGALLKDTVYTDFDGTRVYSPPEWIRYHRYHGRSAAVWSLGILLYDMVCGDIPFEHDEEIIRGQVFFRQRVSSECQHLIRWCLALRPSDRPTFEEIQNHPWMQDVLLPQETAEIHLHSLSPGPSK
Procedure: (§3) BaF3 parental line was obtained from the DSMZ repository. BaF3 lines transfected with PIM1 or PIM2 were generated. Mouse IL-3 was purchased from R&D Systems. G418 was purchased from Clontech. Media for BaF3 parental line contained RPMI, 10% FBS, 2 mM L-Glutamine, 2 ng/mL mIL-3. Media for BaF3 PIM1 & 2 lines contained RPMI, 10% FBS, 2 mM L-Glutamine, […]. Media for MM1.S line contained RPMI, 10% FBS, 2 mM L-Glutamine.
(§4) BaF3 parental cells, BaF3 PIM1 cells, BaF3 PIM2 cells, and MM1.S cells were seeded at 2 k/well, 5 k/well, 5 k/well, and 10 k/well respectively, in a 384-well plate, at 45 μL/well. Test compound was added at 5 μL/well. BaF3 cells (parental and transfected) were incubated overnight, while MM1.S cells were incubated for 72 hours at 37° C., 5% CO2. Cell Titer Glo Reagent (Promega) was added at 50 μL/well, the plates were incubated for 30 minutes, and their luminescence read on an HT Analyst. IC50/EC50 values for the test compound were calculated.

BaF3 PIM2 cells = BaF3 PIM2 cells (Homo sapiens, UniProt Q9P1W9); experiment: BaF3 PIM2 cell proliferation (Cell Titer Glo); format: cell-based; conditions: incubated overnight; read-out: Prolif BaF3_PIM2 (IC50)
BaF3 PIM2 cells, sequence (Q9P1W9 whole entry, change not shown): as the sequence (Q9P1W9 whole entry) above
Procedure: as §3, §4

MM1.S cells = experiment: MM1.S cell proliferation, 72 hours (Cell Titer Glo); format: cell-based; conditions: Homo sapiens, 72 hours, read-out: Prolif MM1S ATP (EC50)
Procedure: as §3, §4

T1 sequence (P11309 whole entry): as the sequence (P11309 whole entry, change not shown) above

Compound | pKi (PIM1) | pKi (PIM2) | pKi (PIM3) | GI50 (BaF3 PIM1 cells) | GI50 (BaF3 PIM2 cells) | pEC50 (MM1.S cells)
Nc1sc(-c2ccc(Cl)cc2)nc1C(=O)Nc1cnccc1N1CCC[C@H](N)C1 [Example 12, (S)-5-amino-N-(4-(3-aminopiperidin-1-yl)pyridin-3-yl)-2-(4-chlorophenyl)thiazole-4-carboxamide] | 9.76 | 8.97 | 10.14 | 2300 nM | 4200 nM | 5.17
Nc1sc(-c2ccccc2OC(F)(F)F)nc1C(=O)Nc1cnccc1N1CCC[C@H](N)C1 [Example 15] | 8.71 | 7.79 | 8.72 | 945 nM | 3300 nM | 5.36
CC(C)(C)c1nc(C(=O)Nc2cnccc2N2CCC[C@H](N)C2)c(N)s1 [Example 16, (S)-5-amino-N-(4-(3-aminopiperidin-1-yl)pyridin-3-yl)-2-tert-butylthiazole-4-carboxamide] | 8.81 | 8.42 | 8.65 | 926 nM | > 20000 nM | 4.70 to 5.00
Nc1sc(-c2c(F)cccc2F)nc1C(=O)Nc1cnccc1Cl [Example 17, 5-amino-N-(4-chloropyridin-3-yl)-2-(2,6-difluorophenyl)thiazole-4-carboxamide] | 7.85 | 7.12 | 8.17 | > 20000 nM | > 20000 nM | < 4.70
CN(C)C(=O)c1ccc(F)c(-c2nc(C(=O)Nc3cnccc3N3CCC[C@H](N)C3)c(N)s2)c1 [Example 18, (S)-5-amino-N-(4-(3-aminopiperidin-1-yl)pyridin-3-yl)-2-(5-(dimethylcarbamoyl)-2-fluorophenyl)thiazole-4-carboxamide] | 10.02 | 9.22 | 10.48 | 257 nM | 12300 nM | 6.12
CN(C)Cc1nc(C(=O)Nc2cnccc2N2CCC[C@H](N)C2)c(N)s1 [Example 21, (S)-5-amino-N-(4-(3-aminopiperidin-1-yl)pyridin-3-yl)-2-((dimethylamino)methyl)thiazole-4-carboxamide] | 6.38 | 6.62 | 6.86 | > 20000 nM | > 20000 nM | < 4.70
NC(=O)c1cccc(-c2nc(C(=O)Nc3cnccc3N3CCC[C@H](N)C3)c(N)s2)c1 [Example 22, (S)-5-amino-N-(4-(3-aminopiperidin-1-yl)pyridin-3-yl)-2-(3-carbamoylphenyl)thiazole-4-carboxamide] | 10.27 | 9.31 | 10.28 | 520 nM | > 20000 nM | 5.33
Nc1sc(-c2cc(Cl)ccc2F)nc1C(=O)Nc1cnccc1N1CCC[C@H](N)C1 [Example 23, (S)-5-amino-N-(4-(3-aminopiperidin-1-yl)pyridin-3-yl)-2-(5-chloro-2-fluorophenyl)thiazole-4-carboxamide] | 10.47 | 9.82 | 10.51 | 2500 nM | 1800 nM | 6.86
Nc1sc(-c2c(F)cccc2F)nc1C(=O)Nc1cnccc1N1CCCCC1 [Example 24, 5-amino-2-(2,6-difluorophenyl)-N-(4-(piperidin-1-yl)pyridin-3-yl)thiazole-4-carboxamide] | 9.37 | 7.79 | 8.75 | > 14000 nM | > 20000 nM | 4.70
CCOc1ccc(F)c(-c2nc(C(=O)Nc3cnccc3N3CCC[C@H](N)C3)c(N)s2)c1F [Example 26, (S)-5-amino-N-(4-(3-aminopiperidin-1-yl)pyridin-3-yl)-2-(3-ethoxy-2,6-difluorophenyl)thiazole-4-carboxamide] | 10.85 | 9.82 | 10.66 | 28.2 nM | 2400 nM | 6.83
CCCOc1ccc(F)c(-c2nc(C(=O)Nc3cnccc3N3CCC[C@H](N)C3)c(N)s2)c1F [Example 27, (S)-5-amino-N-(4-(3-aminopiperidin-1-yl)pyridin-3-yl)-2-(3-propyloxy-2,6-difluorophenyl)thiazole-4-carboxamide] | 10.40 | 9.61 | 10.30 | 75.7 nM | 3900 nM | 6.25
CCCCOc1ccc(F)c(-c2nc(C(=O)Nc3cnccc3N3CCC[C@H](N)C3)c(N)s2)c1F [Example 28, (S)-5-amino-N-(4-(3-aminopiperidin-1-yl)pyridin-3-yl)-2-(3-butyloxy-2,6-difluorophenyl)thiazole-4-carboxamide] | 9.99 | 9.36 | 9.93 | 135 nM | 2800 nM | 5.72
CC(C)Oc1ccc(F)c(-c2nc(C(=O)Nc3cnccc3N3CCC[C@H](N)C3)c(N)s2)c1F [Example 29, (S)-5-amino-N-(4-(3-aminopiperidin-1-yl)pyridin-3-yl)-2-(3-isopropyloxy-2,6-difluorophenyl)thiazole-4-carboxamide] | 10.24 | 9.25 | 10.15 | 48.9 nM | 4300 nM | 5.80
Cc1ccc(-c2nc(C(=O)Nc3cnccc3N3CCC[C@H](N)C3)c(N)s2)cc1 [Example 30, (S)-5-amino-N-(4-(3-aminopiperidin-1-yl)pyridin-3-yl)-2-(4-tolylthiazole)-4-carboxamide] | 10.12 | 9.37 | 10.48 | 52.2 nM | > 5000 nM | 6.79
Cc1cccc(-c2nc(C(=O)Nc3cnccc3N3CCC[C@H](N)C3)c(N)s2)c1 [Example 31, (S)-5-amino-N-(4-(3-aminopiperidin-1-yl)pyridin-3-yl)-2-(3-tolylthiazole)-4-carboxamide] | 10.33 | 9.47 | 10.64 | 66.5 nM | 2300 nM | 5.89
CCNC(=O)Nc1ccc(-c2nc(C(=O)Nc3cnccc3N3CCC[C@H](N)C3)c(N)s2)cc1 [Example 32, (S)-5-amino-N-(4-(3-aminopiperidin-1-yl)pyridin-3-yl)-2-(4-(3-ethylureido)phenyl)thiazole-4-carboxamide] | 10.27 | 9.90 | 10.66 | 1700 nM | > 20000 nM | 6.19
COc1cc(F)c(-c2nc(C(=O)Nc3cnccc3N3CCC[C@H](N)C3)c(N)s2)c(F)c1 [Example 34, (S)-5-amino-N-(4-(3-aminopiperidin-1-yl)pyridin-3-yl)-2-(2,6-difluoro-4-methoxyphenyl)thiazole-4-carboxamide] | 10.92 | 10.02 | 10.66 | 19.1 nM | > 2500 nM | 7.25
COc1ccc(-c2nc(C(=O)Nc3cnccc3N3CCC[C@H](N)C3)c(N)s2)c(F)c1 [Example 35, (S)-5-amino-N-(4-(3-aminopiperidin-1-yl)pyridin-3-yl)-2-(2-fluoro-4-methoxyphenyl)thiazole-4-carboxamide] | 9.15 | 8.28 | 8.95 | 29.3 nM | 2000 nM | 5.64
COc1ccccc1-c1nc(C(=O)Nc2cnccc2N2CCC[C@H](N)C2)c(N)s1 [Example 39, (S)-5-amino-N-(4-(3-aminopiperidin-1-yl)pyridin-3-yl)-2-(2-methoxyphenyl)thiazole-4-carboxamide] | 9.51 | 8.77 | 9.84 | 375 nM | 5100 nM | 5.49
Cc1ccccc1-c1nc(C(=O)Nc2cnccc2N2CCC[C@H](N)C2)c(N)s1 [Example 40, (S)-5-amino-N-(4-(3-aminopiperidin-1-yl)pyridin-3-yl)-2-o-tolylthiazole-4-carboxamide] | 9.89 | 9.14 | 10.43 | 164 nM | 6500 nM | 5.60
Nc1sc(-c2cc(F)ccc2F)nc1C(=O)Nc1cnccc1N1CCC[C@H](N)C1 [Example 41, (S)-5-amino-N-(4-(3-aminopiperidin-1-yl)pyridin-3-yl)-2-(2,5-difluorophenyl)thiazole-4-carboxamide] | 10.31 | 9.68 | 10.66 | 69 nM | 3900 nM | 5.70
